Results reported in US20220289691A1, “5-AMINO-SUBSTITUTED PYRAZOLES AND TRIAZOLES AS PEST CONTROL AGENTS” (Bayer Aktiengesellschaft, priority 2019, published 2022).

test system: Ctenocephalides felis; assay: Ctenocephalides felis oral test; format: in vivo; conditions: 48 h, 100 ppm in citrated cattle blood, adult cat fleas, after 2 days, read-out: efficacy (kill)
Procedure: Ctenocephalides felis—Oral Test
Solvent: Dimethyl Sulfoxide
To produce a suitable active compound formulation, 10 mg of active compound are mixed with 0.5 ml of dimethyl sulfoxide. Dilution with citrated cattle blood gives the desired concentration.
About 20 unfed adult cat fleas (Ctenocephalides felis) are placed into a chamber which is closed at the top and bottom with gauze. A metal cylinder whose bottom end is closed with parafilm is placed onto the chamber. The cylinder contains the blood/active compound formulation, which can be imbibed by the fleas through the parafilm membrane.
After 2 days, the kill in % is determined. 100% means that all of the fleas have been killed; 0% means that none of the fleas have been killed.

| SMILES | pest or weed control at 100 ppm [%] |
| --- | --- |
| CC(C)c1ccccc1NC(=S)NN=Cc1ccc(-c2nc(NC(=O)C3CC3)n(-c3ccc(OC(F)(F)F)cc3)n2)cc1 [Compound I-013] | 100 |
| CC(=O)Nc1nc(-c2ccc(C(C)=NNC(=S)Nc3c(C)cccc3C)cc2)nn1-c1ccc(OC(F)(F)F)cc1 [Compound I-015] | 100 |
| CCC(=O)Nc1nc(-c2ccc(C(C)=NNC(=S)Nc3ccccc3C(C)C)cc2)nn1-c1ccc(OC(F)(F)F)cc1 [Compound I-016] | 95 |
| CC(=O)Nc1nc(-c2ccc(C=NNC(=S)Nc3ccccc3C)cc2)nn1-c1ccc(OC(F)(F)F)cc1 [Compound I-010] | 100 |
| CC(=O)Nc1nc(-c2ccc(C(C)=NNC(=S)Nc3ccccc3C)cc2)nn1-c1ccc(OC(F)(F)F)cc1 [Compound I-014] | 80 |

test system: Diabrotica balteata; assay: Diabrotica balteata spray test; format: in vivo; conditions: 168 h, 100 g/ha (=32 μg/cavity), beetle larvae on wheat, after 7 days, read-out: efficacy (wheat plant growth)
Procedure: Diabrotica balteata—Spray Test Solvent: 78 parts by weight of acetone • • 1.5 parts by weight of dimethylformamide Emulsifier: alkylaryl polyglycol ether
(§1) To produce a suitable active compound formulation, 1 part by weight of active compound is dissolved using the stated parts by weight of solvent and made up with water containing an emulsifier concentration of 1000 ppm until the desired concentration is attained. To produce further test concentrations, the formulation is diluted with emulsifier-containing water.
Pre-swollen wheat grains (Triticum aestivum) are incubated in a multiwell plate filled with agar and a little water for one day (5 seed grains per cavity). The germinated wheat grains are sprayed with an active compound formulation of the desired concentration. Subsequently, each cavity is infected with 10-20 beetle larvae of Diabrotica balteata.
After 7 days, the efficacy in % is determined. 100% means that all wheat plants have grown as in the untreated, uninfected control; 0% means that no wheat plant has grown.

| SMILES | pest or weed control at 100 g/ha [%] |
| --- | --- |
| CNc1nc(-c2ccc(C=NNC(=S)Nc3ccccc3C(C)C)cc2F)nn1-c1ccc(OC(F)(F)F)cc1 [Compound I-109] | 100 |
| CNc1nc(-c2ccc(C=NN=C3SCC(=O)N3c3ccccc3C(C)C)c(F)c2)nn1-c1ccc(OC(F)(F)F)cc1 [Compound I-105] | 100 |
| CC(C)Nc1nc(-c2ccc(C=NNC(=S)Nc3ccccc3C(C)C)cc2)nn1-c1ccc(OC(F)(F)F)cc1 [Compound I-052] | 100 |
| CC(C)c1ccccc1N1C(=O)CSC1=NN=Cc1ccc(-c2nc(NC3CCOCC3)n(-c3ccc(OC(F)(F)F)cc3)n2)cc1 [Compound I-087] | 100 |
| CNc1nc(-c2ccc(C=NN=C3SCC(=O)N3c3ccccc3C(C)C)cc2F)nn1-c1ccc(OC(F)(F)F)cc1 [Compound I-110] | 100 |
| CC(C)c1ccccc1N1C(=O)CSC1=NC(=O)Nc1ccc(-c2nc(N)n(-c3ccc(OC(F)(F)C(F)(F)F)cc3)n2)cc1 [Compound I-055] | 80 |
| CCOC(CNc1nc(-c2ccc(C=NN=C3SCC(=O)N3c3ccccc3C(C)C)cc2)nn1-c1ccc(OC(F)(F)F)cc1)OCC [Compound I-085] | 80 |
| CNc1nc(-c2ccc(C=NN=C3SCC(=O)CN3c3ccccc3C(C)C)cc2)nn1-c1ccc(OC(F)(F)F)cc1 [Compound I-103] | 100 |
| CNc1nc(-c2ccc(C=NN=C3SCC(=O)N3c3ccccc3C(C)C)cc2Cl)nn1-c1ccc(OC(F)(F)F)cc1 [Compound I-112] | 100 |
| CNc1nc(-c2ccc(C=NNC(=S)Nc3cc(C)ccc3C(C)C)cc2)nn1-c1ccc(OC(F)(F)F)cc1 [Compound I-070] | 100 |
| CNc1nc(-c2ccc(C=NNC(=S)Nc3ccccc3C(C)C)cc2C)nn1-c1ccc(OC(F)(F)F)cc1 [Compound I-119] | 100 |

same assay, conditions: 168 h, 500 g/ha (=160 μg/cavity), beetle larvae on wheat, after 7 days, read-out: efficacy (wheat plant growth)

| SMILES | pest or weed control at 500 g/ha [%] |
| --- | --- |
| CC(C)c1ccccc1N1C(=O)CSC1=NC(=O)Nc1ccc(-c2nc(N)n(-c3ccc(OC(F)(F)C(F)(F)F)cc3)n2)cc1 [Compound I-055] | 100 |

test system: Meloidogyne incognita; assay: Meloidogyne incognita test; format: in vivo; conditions: 336 h, lettuce, after 14 days, read-out: nematicidal efficacy (formation of galls)
Procedure: Meloidogyne incognita Test Solvent: 125.0 parts by weight of acetone
To produce a suitable active compound formulation, 1 part by weight of active compound is mixed with the stated amount of solvent and the concentrate is diluted to the desired concentration with water.
Vessels are filled with sand, active compound solution, an egg/larvae suspension of the southern root-knot nematode (Meloidogyne incognita) and lettuce seeds. The lettuce seeds germinate and the plants develop. The galls develop on the roots.
After 14 days, the nematicidal efficacy in % is determined by the formation of galls. 100% means that no galls were found; 0% means that the number of galls on the treated plants corresponds to the untreated control.

| SMILES | pest or weed control at 20 ppm [%] |
| --- | --- |
| CNc1nc(-c2ccc(C=NNC(=S)Nc3ccccc3C(C)C)cc2F)nn1-c1ccc(OC(F)(F)F)cc1 [Compound I-109] | 90 |
| CNc1nc(-c2ccc(C=NN=C3SCC(=O)N3c3ccccc3C(C)C)c(F)c2)nn1-c1ccc(OC(F)(F)F)cc1 [Compound I-105] | 90 |
| CC(C)Nc1nc(-c2ccc(C=NNC(=S)Nc3ccccc3C(C)C)cc2)nn1-c1ccc(OC(F)(F)F)cc1 [Compound I-052] | 100 |

test system: Phaedon cochleariae; assay: Phaedon cochleariae spray test; format: in vivo; conditions: foliar, 168 h, 100 g/ha, Chinese cabbage leaf discs, after 7 days, read-out: efficacy (beetle larvae killed)
Procedure: Phaedon cochleariae—Spray Test Solvent: 78.0 parts by weight of acetone • • 1.5 parts by weight of dimethylformamide Emulsifier: alkylaryl polyglycol ether
as §1
Discs of Chinese cabbage leaves (Brassica pekinensis) are sprayed with an active compound formulation of the desired concentration and, after drying, populated with larvae of the mustard beetle (Phaedon cochleariae).
After 7 days, the efficacy in % is determined. 100% means that all the beetle larvae have been killed; 0% means that no beetle larvae have been killed.

| SMILES | pest or weed control at 100 g/ha [%] |
| --- | --- |
| CC(C)c1ccccc1NC(=S)NN=Cc1ccc(-c2nc(NC(=O)C3CC3)n(-c3ccc(OC(F)(F)F)cc3)n2)cc1 [Compound I-013] | 100 |
| CC(=O)Nc1nc(-c2ccc(C(C)=NNC(=S)Nc3c(C)cccc3C)cc2)nn1-c1ccc(OC(F)(F)F)cc1 [Compound I-015] | 83 |
| CCC(=O)Nc1nc(-c2ccc(C(C)=NNC(=S)Nc3ccccc3C(C)C)cc2)nn1-c1ccc(OC(F)(F)F)cc1 [Compound I-016] | 100 |
| CC(=O)Nc1nc(-c2ccc(C=NNC(=S)Nc3ccccc3C)cc2)nn1-c1ccc(OC(F)(F)F)cc1 [Compound I-010] | 100 |
| CC(=O)Nc1nc(-c2ccc(C(C)=NNC(=S)Nc3ccccc3C)cc2)nn1-c1ccc(OC(F)(F)F)cc1 [Compound I-014] | 100 |

test system: Spodoptera frugiperda; assay: Spodoptera frugiperda spray test; format: in vivo; conditions: foliar, 168 h, 100 g/ha, maize leaf discs, after 7 days, read-out: efficacy (caterpillars killed)
Procedure: Spodoptera frugiperda—Spray Test Solvent: 78.0 parts by weight of acetone • • 1.5 parts by weight of dimethylformamide Emulsifier: alkylaryl polyglycol ether
as §1
Leaf discs of maize (Zea mays) are sprayed with an active compound formulation of the desired concentration and, after drying, populated with caterpillars of the fall armyworm (Spodoptera frugiperda).
After 7 days, the efficacy in % is determined. 100% means that all the caterpillars have been killed; 0% means that no caterpillar has been killed.

| SMILES | pest or weed control at 100 g/ha [%] |
| --- | --- |
| CNc1nc(-c2ccc(C=NNC(=S)Nc3ccccc3C(C)C)cc2F)nn1-c1ccc(OC(F)(F)F)cc1 [Compound I-109] | 100 |
| CC(C)c1ccccc1NC(=S)NN=Cc1ccc(-c2nc(NC(=O)C3CC3)n(-c3ccc(OC(F)(F)F)cc3)n2)cc1 [Compound I-013] | 100 |
| CNc1nc(-c2ccc(C=NN=C3SCC(=O)N3c3ccccc3C(C)C)c(F)c2)nn1-c1ccc(OC(F)(F)F)cc1 [Compound I-105] | 100 |
| CC(=O)Nc1nc(-c2ccc(C(C)=NNC(=S)Nc3c(C)cccc3C)cc2)nn1-c1ccc(OC(F)(F)F)cc1 [Compound I-015] | 100 |
| CC(C)Nc1nc(-c2ccc(C=NNC(=S)Nc3ccccc3C(C)C)cc2)nn1-c1ccc(OC(F)(F)F)cc1 [Compound I-052] | 100 |
| CCC(=O)Nc1nc(-c2ccc(C(C)=NNC(=S)Nc3ccccc3C(C)C)cc2)nn1-c1ccc(OC(F)(F)F)cc1 [Compound I-016] | 100 |
| CC(=O)Nc1nc(-c2ccc(C=NNC(=S)Nc3ccccc3C)cc2)nn1-c1ccc(OC(F)(F)F)cc1 [Compound I-010] | 100 |
| CC(C)c1ccccc1N1C(=O)CSC1=NN=Cc1ccc(-c2nc(NC3CCOCC3)n(-c3ccc(OC(F)(F)F)cc3)n2)cc1 [Compound I-087] | 100 |
| CNc1nc(-c2ccc(C=NN=C3SCC(=O)N3c3ccccc3C(C)C)cc2F)nn1-c1ccc(OC(F)(F)F)cc1 [Compound I-110] | 100 |
| CC(C)c1ccccc1N1C(=O)CSC1=NC(=O)Nc1ccc(-c2nc(N)n(-c3ccc(OC(F)(F)C(F)(F)F)cc3)n2)cc1 [Compound I-055] | 100 |
| CCOC(CNc1nc(-c2ccc(C=NN=C3SCC(=O)N3c3ccccc3C(C)C)cc2)nn1-c1ccc(OC(F)(F)F)cc1)OCC [Compound I-085] | 100 |
| CNc1nc(-c2ccc(C=NN=C3SCC(=O)CN3c3ccccc3C(C)C)cc2)nn1-c1ccc(OC(F)(F)F)cc1 [Compound I-103] | 100 |
| CNc1nc(-c2ccc(C=NN=C3SCC(=O)N3c3ccccc3C(C)C)cc2Cl)nn1-c1ccc(OC(F)(F)F)cc1 [Compound I-112] | 100 |
| CNc1nc(-c2ccc(C=NNC(=S)Nc3cc(C)ccc3C(C)C)cc2)nn1-c1ccc(OC(F)(F)F)cc1 [Compound I-070] | 100 |
| CNc1nc(-c2ccc(C=NNC(=S)Nc3ccccc3C(C)C)cc2C)nn1-c1ccc(OC(F)(F)F)cc1 [Compound I-119] | 100 |
| CC(=O)Nc1nc(-c2ccc(C(C)=NNC(=S)Nc3ccccc3C)cc2)nn1-c1ccc(OC(F)(F)F)cc1 [Compound I-014] | 100 |
